Experimental findings from patent US20110009447A1, “Substituted Benzoic Acid Amides and Use thereof for the Inhibition of Angiogenesis” (priority 2001, published 2011) are described below.

Where two headings read alike, the source gives them in different places.

Series [1] has as its target VEGFR I (FLT) (Homo sapiens, UniProt P17948). The series is described as follows: Inhibition of FLT-1 kinase activity (33P-ATP, poly-(Glu4Tyr) phosphocellulose filter assay). The series is classed as biochemical. The procedure: (§1) • Stock solutions • Stock solution A: 3 mmol of ATP in water, pH 7.0 (−70° C.) • Stock solution B: g-33P-ATP 1 mCi/100 μl • Stock solution C: poly-(Glu4Tyr) 10 mg/ml in water Solution for dilutions • Substrate solvent: 10 mmol of DTT, 10 mmol of manganese chloride, 100 mmol of magnesium chloride • Enzyme solution: 120 mmol of tris/HCl, pH 7.5, 10 μM of sodium vanadium oxide
Then, it is washed several times in 0.1 M phosphoric acid. The filter paper is dried, coated with Meltilex and measured in a microbeta counter.

Series [2] has as its target VEGFR II (KDR) (Homo sapiens, UniProt P35968). Briefly: Inhibition of KDR kinase activity (33P-ATP, poly-(Glu4Tyr) phosphocellulose filter assay). The class given is biochemical. The conditions noted are these: poly-(Glu4Tyr) substrate, 10 minutes at room temperature. The procedure:
as §1
In a microtiter plate (without protein binding) that tapers to a point, 10 μl of substrate mix (10 μl of volume of ATP stock solution A+25 μCi of g-33P-ATP (about 2.5 μl of stock solution B)+30 μl of poly-(Glu4Tyr) stock solution C+1.21 ml of substrate solvent), 10 μl of inhibitor solution (substances corresponding to the dilutions, 3% DMSO in substrate solvent as a control) and 10 μl of enzyme solution (11.25 μg of enzyme stock solution (KDR or FLT-1 kinase) are added at 4° C. in 1.25 ml of enzyme solution (dilute). It is thoroughly mixed and incubated for 10 minutes at room temperature. Then, 10 μl of stop solution (250 mmol of EDTA, pH 7.0) is added, mixed, and 10 μl of the solution is transferred to a P 81 phosphocellulose filter. Then, it is washed several times in 0.1 M phosphoric acid. The filter paper is dried, coated with Meltilex and measured in a microbeta counter.
The IC50 values are determined from the inhibitor concentration, which is necessary to inhibit the phosphate incorporation to 50% of the uninhibited incorporation after removal of the blank reading (EDTA-stopped reaction).

The mark [3] stands for this setting: FLT-1 kinase, poly-(Glu4Tyr) substrate, 10 minutes at room temperature, read-out: kinase inhibition IC50 VEGFR I (FLT).

VEGFR I (FLT), sequence (P17948 27-1338, species assumed): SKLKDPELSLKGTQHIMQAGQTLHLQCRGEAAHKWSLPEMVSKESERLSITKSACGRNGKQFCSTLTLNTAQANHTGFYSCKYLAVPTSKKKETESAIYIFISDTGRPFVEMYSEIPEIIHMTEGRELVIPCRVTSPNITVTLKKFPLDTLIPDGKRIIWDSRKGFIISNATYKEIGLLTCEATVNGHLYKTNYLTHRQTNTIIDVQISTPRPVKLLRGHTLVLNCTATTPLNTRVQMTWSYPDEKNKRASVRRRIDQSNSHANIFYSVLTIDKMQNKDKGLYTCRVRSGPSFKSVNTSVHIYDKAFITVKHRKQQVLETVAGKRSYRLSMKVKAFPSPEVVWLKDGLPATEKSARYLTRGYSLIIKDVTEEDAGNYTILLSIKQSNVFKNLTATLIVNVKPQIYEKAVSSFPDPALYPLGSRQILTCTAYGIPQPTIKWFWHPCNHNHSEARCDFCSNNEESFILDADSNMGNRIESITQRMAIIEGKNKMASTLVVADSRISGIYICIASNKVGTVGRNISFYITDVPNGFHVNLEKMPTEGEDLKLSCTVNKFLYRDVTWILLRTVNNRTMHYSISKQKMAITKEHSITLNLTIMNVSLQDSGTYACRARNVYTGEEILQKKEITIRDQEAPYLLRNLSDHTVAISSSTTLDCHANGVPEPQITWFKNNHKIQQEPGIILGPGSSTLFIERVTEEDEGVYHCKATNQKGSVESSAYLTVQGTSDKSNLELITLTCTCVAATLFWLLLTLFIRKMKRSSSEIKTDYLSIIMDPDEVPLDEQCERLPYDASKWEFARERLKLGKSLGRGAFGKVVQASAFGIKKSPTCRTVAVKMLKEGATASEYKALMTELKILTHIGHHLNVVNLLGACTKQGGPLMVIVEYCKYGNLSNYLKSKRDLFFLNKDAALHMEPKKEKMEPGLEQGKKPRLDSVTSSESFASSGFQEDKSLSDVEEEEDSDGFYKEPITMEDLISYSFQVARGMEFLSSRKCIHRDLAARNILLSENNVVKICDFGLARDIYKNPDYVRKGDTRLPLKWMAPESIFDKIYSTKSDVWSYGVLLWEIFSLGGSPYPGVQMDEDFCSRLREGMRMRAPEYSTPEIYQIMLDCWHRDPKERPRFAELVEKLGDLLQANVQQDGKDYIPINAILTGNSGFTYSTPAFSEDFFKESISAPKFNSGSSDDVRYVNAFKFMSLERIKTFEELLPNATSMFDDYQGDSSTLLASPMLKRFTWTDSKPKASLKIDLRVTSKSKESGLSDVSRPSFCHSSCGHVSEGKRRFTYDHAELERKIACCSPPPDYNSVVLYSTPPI
VEGFR II (KDR), sequence (P35968 20-1356, species assumed): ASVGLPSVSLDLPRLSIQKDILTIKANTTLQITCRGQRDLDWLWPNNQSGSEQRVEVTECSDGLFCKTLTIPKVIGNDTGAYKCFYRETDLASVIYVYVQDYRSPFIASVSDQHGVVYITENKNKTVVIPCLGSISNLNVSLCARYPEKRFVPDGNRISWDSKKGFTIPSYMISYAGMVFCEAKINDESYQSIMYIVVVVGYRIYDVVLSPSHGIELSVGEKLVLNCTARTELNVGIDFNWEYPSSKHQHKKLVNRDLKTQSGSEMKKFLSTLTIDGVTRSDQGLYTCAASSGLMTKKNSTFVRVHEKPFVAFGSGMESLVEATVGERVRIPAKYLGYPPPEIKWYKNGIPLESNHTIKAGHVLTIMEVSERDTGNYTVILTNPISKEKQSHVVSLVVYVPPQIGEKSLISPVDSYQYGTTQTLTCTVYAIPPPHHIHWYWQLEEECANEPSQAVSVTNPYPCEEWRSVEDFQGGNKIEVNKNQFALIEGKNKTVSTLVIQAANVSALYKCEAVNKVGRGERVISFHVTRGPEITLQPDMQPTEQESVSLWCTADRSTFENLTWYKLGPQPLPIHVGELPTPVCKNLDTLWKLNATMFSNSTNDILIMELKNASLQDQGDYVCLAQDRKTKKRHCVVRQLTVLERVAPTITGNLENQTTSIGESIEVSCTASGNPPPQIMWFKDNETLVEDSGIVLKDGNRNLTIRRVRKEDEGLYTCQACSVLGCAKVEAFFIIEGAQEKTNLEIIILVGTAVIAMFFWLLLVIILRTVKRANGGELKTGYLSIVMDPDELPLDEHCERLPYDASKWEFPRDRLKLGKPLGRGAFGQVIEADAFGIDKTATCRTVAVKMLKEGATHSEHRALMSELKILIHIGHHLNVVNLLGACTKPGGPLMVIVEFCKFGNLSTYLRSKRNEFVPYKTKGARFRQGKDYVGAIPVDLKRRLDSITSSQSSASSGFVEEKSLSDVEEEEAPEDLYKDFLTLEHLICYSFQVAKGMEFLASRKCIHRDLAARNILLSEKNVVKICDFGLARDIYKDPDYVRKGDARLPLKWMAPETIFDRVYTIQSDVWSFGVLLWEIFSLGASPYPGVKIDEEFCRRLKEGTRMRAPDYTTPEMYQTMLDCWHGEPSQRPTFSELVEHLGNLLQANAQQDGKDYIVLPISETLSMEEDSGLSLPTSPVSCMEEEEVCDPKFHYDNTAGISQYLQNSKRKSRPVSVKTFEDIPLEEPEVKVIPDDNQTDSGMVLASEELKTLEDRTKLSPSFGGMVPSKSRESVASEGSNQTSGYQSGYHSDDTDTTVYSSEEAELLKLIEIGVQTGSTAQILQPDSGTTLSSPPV

One may read the IC50 as the concentration that gives 50% inhibition. For the compound `COc1ccc(CCc2ccccc2C(=O)Nc2cnc3ccccc3c2)cc1` [Example 1.89], the IC50 in series [1] (setting [3]) turned out to be 2 µM; in series [2], 0.3 µM.
For `CCCCCCCNC(=O)c1ccccc1/C=C\c1ccc(OC)cc1` [Example 1.64], in that order: 0.2 µM and 0.3 µM.
Usually melting point stands for the temperature, or range, at which the solid turns liquid. Regarding `O=C(NCC1CCCCC1)c1ccccc1CCc1ccncc1` [Example 1.31], the melting point lay in the range of 105 to 107 °C. In addition, the IC50 in series [1] (setting [3]) turned out to be 0.2 µM. The compound further showed a concentration for half-maximal inhibition (IC50) in series [2] of 0.4 µM.
On to `COc1ccc(/C=C\c2ccccc2C(=O)Nc2cnc3ccccc3c2)cc1` [Example 1.60], for which the IC50 worked out at 2 µM in series [1] (setting [3]) and 0.5 µM in series [2].
`CCCc1ccc(NC(=O)c2ccccc2CCc2ccncc2)cc1` [Example 1.1]: the IC50 in series [1] and in series [2] was 0.2 µM throughout.
Compound `COc1ccc(/C=C\c2ccccc2C(=O)Nc2ccc(Cl)cc2)cc1` [Example 1.57] gave a melting point of 137.9 °C. In addition, the IC50 in series [1] (setting [3]) amounted to 0.2 µM. Further, the IC50 in series [2] worked out at 0.2 µM.
Take `O=C(Nc1ccc(Cl)cc1)c1cccc(C#Cc2cccnc2)c1` [Example 1.54]: the melting point came to 179 °C. Further, the IC50 in series [1] (setting [3]) stood at 0.05 µM. The IC50 in series [2] came to 0.5 µM.
As to `CCCc1ccc(NC(=O)c2ccccc2CCc2ccc(OC)cc2)cc1` [Example 1.67], the melting point was determined as 113.7 °C. Also, the half-maximal inhibitory concentration (IC50) in series [2] stood at 5 µM.
